Key:
[1] = system: parental wild-type Ba/F3 cells; test: Ba/F3 (WT) cell proliferation assay (Alamar Blue); format: cell-based; details: Mus musculus; for IC50: BaF3, 72 hours, Alamar Blue, read-out: BaF3 WT prolif
Ba/F3-TEL-FGFR3 cells = test: Ba/F3-TEL-FGFR3 cell proliferation assay (Alamar Blue); format: cell-based; details: 72 hours, Alamar Blue; read-out: BaF3-TEL-FGFR3 prolif
FGFR3 = FGFR3 (Homo sapiens (Human), UniProt P22607); test: FGFR3 in vitro kinase inhibitory activity assay (TRF); details: 3 h, read-out: FGFR3 % I
[2] = system: LP-1 cell line (FGF-1/Heparin induced pERK); test: Cell-based pERK ELISA, LP-1 cells; details: Homo sapiens, LP-1, read-out: LP-1 pERK ELISA (μM)
VEGFR2 = VEGFR2 (Homo sapiens (Human), UniProt P35968); test: VEGFR2 in vitro kinase inhibitory activity assay (TRF, Flt3 substrate); format: biochemical; details: for inhibition at 1 µM: 1 h, read-out: VEGFR2 % I
[3] = BaF3, read-out: BaF3 WT prolif, % inhibition

Chain of VEGFR2 (P35968 20-1356): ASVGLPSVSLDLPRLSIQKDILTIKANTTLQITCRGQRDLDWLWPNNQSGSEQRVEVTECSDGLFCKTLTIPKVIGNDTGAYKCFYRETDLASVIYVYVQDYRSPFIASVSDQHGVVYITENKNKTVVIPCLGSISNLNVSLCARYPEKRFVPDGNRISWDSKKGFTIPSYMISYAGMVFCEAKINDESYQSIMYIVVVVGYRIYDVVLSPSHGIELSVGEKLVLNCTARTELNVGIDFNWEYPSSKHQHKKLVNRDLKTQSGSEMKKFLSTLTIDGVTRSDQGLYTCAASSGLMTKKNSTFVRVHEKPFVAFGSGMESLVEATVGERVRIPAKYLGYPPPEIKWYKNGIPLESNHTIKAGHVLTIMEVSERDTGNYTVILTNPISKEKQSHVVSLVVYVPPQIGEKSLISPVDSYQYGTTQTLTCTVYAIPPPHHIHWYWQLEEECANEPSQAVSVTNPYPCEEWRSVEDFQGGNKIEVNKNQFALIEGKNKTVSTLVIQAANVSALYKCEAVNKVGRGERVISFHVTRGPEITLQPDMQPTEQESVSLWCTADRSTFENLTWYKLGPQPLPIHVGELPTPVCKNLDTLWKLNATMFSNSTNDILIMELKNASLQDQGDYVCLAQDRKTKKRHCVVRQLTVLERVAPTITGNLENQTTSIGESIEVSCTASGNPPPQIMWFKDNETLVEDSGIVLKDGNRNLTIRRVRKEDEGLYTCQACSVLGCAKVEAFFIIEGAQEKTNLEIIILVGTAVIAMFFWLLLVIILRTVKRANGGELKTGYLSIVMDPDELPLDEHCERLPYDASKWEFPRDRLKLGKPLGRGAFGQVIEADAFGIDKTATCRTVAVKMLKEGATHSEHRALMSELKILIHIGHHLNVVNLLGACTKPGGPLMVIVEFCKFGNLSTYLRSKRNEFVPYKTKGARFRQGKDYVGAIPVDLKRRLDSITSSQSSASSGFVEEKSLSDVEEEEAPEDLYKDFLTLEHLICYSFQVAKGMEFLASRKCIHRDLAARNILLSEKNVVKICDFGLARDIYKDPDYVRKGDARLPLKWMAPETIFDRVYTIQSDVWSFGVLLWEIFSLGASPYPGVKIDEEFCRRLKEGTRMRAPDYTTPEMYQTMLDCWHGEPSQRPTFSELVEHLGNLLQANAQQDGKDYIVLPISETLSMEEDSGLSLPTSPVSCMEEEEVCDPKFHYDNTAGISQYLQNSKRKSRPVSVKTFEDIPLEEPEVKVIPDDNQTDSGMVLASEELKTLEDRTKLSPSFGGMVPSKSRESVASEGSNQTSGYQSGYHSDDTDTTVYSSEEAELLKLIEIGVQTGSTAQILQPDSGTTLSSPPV
Chain of FGFR3 (P22607 23-806): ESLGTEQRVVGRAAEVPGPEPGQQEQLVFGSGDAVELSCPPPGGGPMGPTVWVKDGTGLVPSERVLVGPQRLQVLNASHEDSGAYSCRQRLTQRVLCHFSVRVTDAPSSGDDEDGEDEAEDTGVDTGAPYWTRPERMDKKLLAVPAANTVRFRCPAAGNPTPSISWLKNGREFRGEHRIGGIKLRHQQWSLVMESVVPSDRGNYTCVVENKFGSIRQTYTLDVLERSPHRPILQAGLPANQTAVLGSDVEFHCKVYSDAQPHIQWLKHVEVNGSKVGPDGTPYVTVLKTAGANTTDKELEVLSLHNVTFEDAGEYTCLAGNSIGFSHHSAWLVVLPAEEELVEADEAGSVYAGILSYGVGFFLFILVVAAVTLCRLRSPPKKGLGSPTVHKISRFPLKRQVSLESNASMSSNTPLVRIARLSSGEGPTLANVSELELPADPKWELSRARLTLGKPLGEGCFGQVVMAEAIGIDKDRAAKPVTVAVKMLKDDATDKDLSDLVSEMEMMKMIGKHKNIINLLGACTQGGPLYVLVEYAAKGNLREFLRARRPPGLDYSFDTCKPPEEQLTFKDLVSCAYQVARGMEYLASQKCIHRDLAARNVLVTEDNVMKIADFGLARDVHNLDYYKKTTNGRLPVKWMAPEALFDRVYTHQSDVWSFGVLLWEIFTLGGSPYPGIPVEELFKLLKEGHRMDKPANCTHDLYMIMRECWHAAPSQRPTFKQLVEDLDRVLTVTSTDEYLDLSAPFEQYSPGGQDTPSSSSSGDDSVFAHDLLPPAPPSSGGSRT

| Compound | IC50 [1] | melting point | other results |
| --- | --- | --- | --- |
| CN(C)S(=O)(=O)NCC1CCN(c2ccc(-c3ccn4c(-c5cccc(NC(=O)NCC(F)(F)F)c5)cnc4c3)cn2)CC1 [Compound 272] | 0.2 µM | 145 °C | IC50 (Ba/F3-TEL-FGFR3 cells): 0.051 µM; inhibition at 0.00097 µM (FGFR3): 51% |
| CCNC(=O)Nc1cccc(-c2cnc3cc(C#Cc4cncn4C)ccn23)c1 [Compound 264] |  | 163 °C | IC50 [2]: 0.31 µM; inhibition at 10 µM [1, 3]: 25% |
| O=C(NCC(F)(F)F)Nc1cccc(-c2cnc3cc(-c4nnc(NC5CC5)s4)ccn23)c1 [Compound 250] | 1.73 µM | > 280 °C | IC50 [2]: 0.075 µM; inhibition at 3 µM [1, 3]: 25% |
| NCc1cc(NC(=O)NCC(F)(F)F)cc(-c2cnc3cc(-c4ccnc(C(F)(F)F)n4)ccn23)c1 [Compound 274] |  | 190 °C | inhibition at 1 µM (VEGFR2): 55% |
| NCC1CCN(c2ccc(-c3ccn4c(-c5cccc(NC(=O)NCC(F)(F)F)c5)cnc4c3)cn2)CC1 [Compound 271] | 0.12 µM | 80 °C | IC50 (Ba/F3-TEL-FGFR3 cells): 0.063 µM; inhibition at 0.001 µM (FGFR3): 59% |
| Nc1nc(-c2ccn3c(-c4cc(NC(=O)NCC(F)(F)F)cc(C(F)(F)F)c4)cnc3c2)ncc1F [Compound 258] |  | 185 °C | inhibition at 1 µM (VEGFR2): 37%; inhibition at 3 µM [1, 3]: 36% |
| Nc1nnc(-c2ccn3c(-c4cccc(NC(=O)NCC(F)(F)F)c4)cnc3c2)s1 [Compound 261] |  | > 260 °C | inhibition at 10 µM [1, 3]: 0% |
| N#Cc1ccnc(-c2ccn3c(-c4cccc(NC(=O)NCC(F)(F)F)c4)cnc3c2)n1 [Compound 253] | 1.8 µM | 210 °C |  |
| Cn1cncc1C#Cc1ccn2c(-c3cncc(NC(=O)NCC(F)(F)F)c3)cnc2c1 [Compound 265] |  | > 250 °C | IC50 (VEGFR2): > 30 µM |
| O=C(NCC(F)(F)F)Nc1cc(F)cc(-c2cnc3cc(-c4ccnc(C(F)(F)F)n4)ccn23)c1 [Compound 251] |  | 263 °C | inhibition at 10 µM [1, 3]: 0% |
| NC(=O)Nc1cccc(-c2cnc3cc(-c4nncs4)ccn23)c1 [Compound 268] |  | 259 °C | IC50 [2]: 1.83 µM; inhibition at 3 µM [1, 3]: 23.5% |
| Nc1nc(-c2ccn3c(-c4cccc(NC(=O)NCC(F)(F)F)c4)cnc3c2)ncc1CN1CCC1 [Compound 259] | 2.6 µM | 195 °C |  |
| CC(C)COC(=O)Nc1nc(-c2ccn3c(-c4cccc(NC(=O)NCC(F)(F)F)c4)cnc3c2)ncc1F [Compound 273] |  | 215.2 °C | inhibition at 1 µM (VEGFR2): 40%; inhibition at 10 µM [1, 3]: 43% |
| COc1cc(NC(=O)NCC(F)(F)F)cc(-c2cnc3cc(-c4ncc(F)c(N)n4)ccn23)c1 [Compound 252] |  | 154 °C | IC50 (VEGFR2): > 1 µM; inhibition at 1 µM [1, 3]: 0% |
| O=C(NCC(F)(F)F)Nc1cccc(-c2cnc3cc(-c4nccc(N5CCN(CCO)CC5)n4)ccn23)c1 [Compound 270] |  | 179.8 °C | inhibition at 3 µM [1, 3]: 16% |
| CC(C)(O)c1cnc(-c2ccn3c(-c4cccc(NC(=O)NCC(F)(F)F)c4)cnc3c2)nc1 [Compound 257] | 3.9 µM | 146 °C |  |

— US8796244B2, “Imidazopyridine derivatives as inhibitors of receptor tyrosine kinases” (Astex Therapeutics Ltd, priority 2008, dated 2014)
